Reference: patent US8008319B2, “Treatment of colorectal polyps with imidazoquinoline derivatives” (Meda Pharma GmbH & Co. KG, priority 2008, dated 2011)

Columns and labels:
p53 = conditions: patients with Actinic Keratoses; under imiquimod therapy; cited from earlier work
MC-26 colon carcinoma = conditions: mice; oral treatment; cited from earlier work
[1] = test system: p53 expression in Caco-2 cells; test: p53 mRNA expression in Caco-2 cells by quantitative real-time RT-PCR; type: cell-based
Description: Imiquimod was dissolved in dimethyl sulfoxide (DMSO). Stock concentration was 10 mg/ml. From these stocks stepwise dilutions were prepared. […] The final concentration of DMSO was 0.1%.
The colorectal adenocarcinoma cell line Caco-2 was obtained from ATCC [American Type Culture Collection], Wesel, Germany. The cells were plated in 24-well plates (BD Bioscience, Heidelberg, Germany). The cells were cultured in DMEM supplemented with 10% heat-inactivated foetal bovine serum and 10% non essential amino acids in a humidified atmosphere containing 5% CO2 at 37° C. When confluent, the cells were washed and resuspended in serum-free Dulbecco's Modified Eagle Medium (DMEM) at 10^6 cells ml^−1. […]
RNA was prepared from frozen lysates using RNeasy, Qiagen (Hilden, Germany). One-tube Reverse Transcriptase-Polymerase Chain Reaction (RT-PCR) was performed using Quantitect Probe RT-PCR Kit from QIAGEN (Hilden, Germany). Expression of p53 was determined in relation to beta-actin by real time RT-PCR using SYBR Green assays on an ABI Prism 7900. […] Quantity of mRNA was calculated using […] method. For each RT-PCR the threshold cycle (CT) was determined, being defined as the cycle at which the fluorescence exceeds 10 times the standard deviation of the mean baseline emission for cycles 3 to 10. β-actin was used as a housekeeping gene to normalize mRNA levels: Ct (Parameter)−Ct (β-actin)=ΔCt (Parameter). […]

## CC(C)Cn1cnc2c(N)nc3ccccc3c21 [imiquimod, 1-(2-methylpropyl)-1H-imidazo[4,5-c]quinolin-4-amine]
p53
  gene expression for p53: no differences in gene expression for p53 were found
MC-26 colon carcinoma
  development of MC-26 colon carcinoma: significantly inhibited the development of MC-26 colon carcinoma
[1]; 10 and 100 μM imiquimod, one-way ANOVA with Dunnett's post-hoc
  statistical significance of increase in p53 mRNA levels: reached statistical significance
[1]; concentrations up to 100 μM, FIG. 1
  p53 mRNA expression (relative to beta-actin and vehicle control): increases p53 mRNA expression dose dependently
